For 31 compounds, TGI and GI50 results are on record in PubChem BioAssay (NCI).

Test systems include M19-MEL melanoma; LXFL 529 NSCLC; SNB-78 CNS; DLD-1 colon; PC-3 prostate; RXF-631 renal; HOP-18 NSCLC; XF 498 CNS; MDA-N.
Common to all, as to assay: NCI tumour cell line growth inhibition, 48 h

SMILES strings stand for the structures.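 Test compounds were applied to cells in 96-well plates for 48 hours at 5 doses. GI50 is the concentration that inhibits growth by half. TGI denotes the concentration required for complete inhibition of growth.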 Bounds are passed on as bounds.

For the compound `O=C1C=CC=C/C1=C1/SC(c2ccccc2)=C(O)N1c1ccccc1`, the TGI in the experiment with M19-MEL melanoma, in the experiment on LXFL 529 NSCLC and with SNB-78 CNS was above 100 µM in each case.
With `Cc1cccc(C2SCc3nc4ccccc4n32)c1` (configuration not stated), the TGI in the experiment on M19-MEL melanoma is 96.8 µM; in the experiment with DLD-1 colon, 75.9 µM; with LXFL 529 NSCLC it was above 100 µM; in the experiment on SNB-78 CNS, 99.4 µM.
Regarding `COCc1c(-c2cc3cc(C)cc(OC)c3s2)c2c(N)ncnn2c1CN1CCNC(=O)C1`, in the experiment with PC-3 prostate, the GI50 was 8.54 µM and the TGI is above 100 µM.
With `CCOC(=O)/C(=C/c1ccc(C(=O)OC)cc1)N(CC)CC`, the TGI with M19-MEL melanoma is above 100 µM; in the experiment with LXFL 529 NSCLC, above 100 µM; in the experiment with SNB-78 CNS, 91.7 µM.
With `CC1/C(=N\O)CC(c2ccccc2)N(C)C1c1ccccc1` (configuration not stated), the TGI with M19-MEL melanoma, with DLD-1 colon, in the experiment on LXFL 529 NSCLC, in the experiment with RXF-631 renal and in the experiment on SNB-78 CNS was above 100 µM in each case.
Consider `COc1ccc2c(c1)[nH]c(=O)c1c3cccc(F)c3cn21`, for which, in the experiment on PC-3 prostate, the GI50 is 0.0345 µM and the TGI is above 31.9 µM.
For the compound `NCCCC[C@@H]1NC(=O)[C@H](CC(=O)O)NC(=O)CNC(=O)[C@H](CCCN=C(N)N)NC(=O)[C@@H](N)CSSC[C@@H](C(=O)O)NC(=O)[C@H](CC(=O)O)NC(=O)[C@@H]2CCCN2C(=O)CNC1=O`, in the experiment on PC-3 prostate, the GI50 was above 100 µM and the TGI is above 100 µM.
`CC1=C(c2ccccc2)C(O)(c2ccccc2)C(C)C1=O` (configuration not stated): in the experiment with PC-3 prostate, the GI50 is 22.8 µM and the TGI is above 100 µM.
Taken in the same sequence, the figures for `CCc1ccc(CCC(=O)Nc2ncc(Cc3ccc(Cl)cc3)s2)o1` were 0.403 µM and above 100 µM.
`COc1cc(Nc2ncc(-c3ccccc3)o2)cc(OC)c1`: in the experiment with PC-3 prostate, the GI50 is above 25 µM and the TGI is above 25 µM.
In the case of `COC(=O)c1ccc(CN2C(=O)C(Cl)=C(Nc3cccc(Cl)c3C)C2=O)cc1`, in the experiment with PC-3 prostate, the GI50 is 37.6 µM and the TGI was above 100 µM.
Turning to `NC(=O)c1cc([N+](=O)[O-])c(Cl)c([N+](=O)[O-])c1Cl`, in the experiment with PC-3 prostate, the GI50 was 1.58 µM and the TGI worked out at 3.1 µM.
Consider `Cc1cccc(C)c1NC(=O)C1=NC(=S)NC(c2ccccc2)C1c1nc2ccccc2s1` (configuration not stated), for which the TGI in the experiment on HOP-18 NSCLC, in the experiment on M19-MEL melanoma, with DLD-1 colon, in the experiment on LXFL 529 NSCLC, with SNB-78 CNS and in the experiment on XF 498 CNS was above 100 µM in each case.
On to `COc1ccc2c(c1)nc(C(=O)c1ccco1)c(C(F)(F)F)[n+]2[O-]`, for which, in the experiment with PC-3 prostate, the GI50 is 77.4 µM and the TGI is above 100 µM.
The matching figures for `COc1ccc2c(c1)c(-c1nc(-c3c[nH]c4ccncc34)cs1)cn2C`: 1.6 µM and 3.06 µM.
Take `CC1CC[P+](c2ccccc2)(c2ccccc2)c2c1ccc1ccccc21` (configuration not stated): the TGI with PC-3 prostate turned out to be 7.34 µM. Moreover, in the experiment on MDA-N, the GI50 is 2.98 µM and the TGI is above 28.3 µM.
As for `COC(=O)C1Cc2c(n(C)c3ccccc23)C(CCC(=O)O)N1Cc1ccccc1` (configuration not stated), the TGI with M19-MEL melanoma is above 100 µM; in the experiment with DLD-1 colon it was above 100 µM; with LXFL 529 NSCLC, above 100 µM; with RXF-631 renal, above 100 µM; with SNB-78 CNS it was above 100 µM; in the experiment on XF 498 CNS, 72.5 µM.
As to `CCC(C)[C@H](NC(=O)Nc1cc(C(F)(F)F)cc(C(F)(F)F)c1)C(=O)N[C@@H](Cc1cn(C)cn1)C(=O)OC` (some centres not stated), in the experiment with PC-3 prostate, the GI50 is 0.715 µM and the TGI is 1.77 µM.
Consider `COC12C=C/C(=C(/C(=O)OCc3ccccn3)C(=O)CCCCCCCCC3(OC)C=C/C(=C(/C(=O)OCc4ccccn4)C(=O)CCCCCCCC1)O3)O2`, for which, in the experiment with PC-3 prostate, the GI50 was 0.719 µM and the TGI amounted to 3.98 µM.
`O=C1CC(c2ccccc2)=Nc2ccccc2N1`: the TGI in the experiment with HOP-18 NSCLC, with M19-MEL melanoma, with DLD-1 colon, with LXFL 529 NSCLC, in the experiment with SNB-78 CNS and with XF 498 CNS was above 100 µM throughout.
In the case of `CCOC(=O)c1cc2c(cc1Cl)SC(=Nc1ccccc1)N(S(=O)(=O)c1ccc(Cl)cc1)S2(=O)=O`, in the experiment with PC-3 prostate, the GI50 is 12.2 µM and the TGI was 28.6 µM.
Take `CCN(Cc1ccccc1)C1CCN(Cc2cc(Br)ccc2O)CC1`: in the experiment on PC-3 prostate, the GI50 is 38.9 µM and the TGI was above 100 µM.
Turning to `OC(COC(c1ccccc1)(c1ccccc1)c1ccccc1)C(O)CC1SCCS1` (configuration not stated), the results for the TGI in the experiment with PC-3 prostate and with MDA-N were 31.8 µM and 60.1 µM, respectively.
The matching figures for `O=S(=O)(NNc1ccccc1)c1ccccc1`: 22.9 µM and 25.3 µM.
`CC(=O)Nc1c(Nc2ccccc2)[nH]c(C)nc1=S`: the TGI in the experiment with DLD-1 colon, in the experiment with LXFL 529 NSCLC, in the experiment with SNB-78 CNS and with XF 498 CNS was above 100 µM in each case.
`CNC(=O)c1c(NC(=O)c2ccc(C(C)(C)C)cc2)sc2c1CCC(=O)C2`: in the experiment with PC-3 prostate, the GI50 is 0.0797 µM and the TGI was 1.35 µM.
For `Cc1cc2c(cc1Cl)S/C(=C/C(=O)O)C(Nc1ccc3ncsc3c1)=NS2(=O)=O`, in the experiment with PC-3 prostate, the GI50 is 14.2 µM and the TGI is above 49.4 µM.
For `COc1ncc(Nc2ncc([C@@H](C)N3CCN(S(C)(=O)=O)CC3)cc2-c2nc(C)nc(N)n2)cc1F`, in the experiment on PC-3 prostate, the GI50 is below 0.0139 µM and the TGI is above 100 µM.
For the compound `Nc1nc([Se])c2ncn(C3OC(CO)C(O)C3O)c2n1` (configuration not stated), in the experiment on PC-3 prostate, the GI50 is 24.8 µM and the TGI is above 100 µM.
As for `O=c1[nH]c2ccccc2nc1/C=C(\O)c1ccccc1O`, the TGI in the experiment on HOP-18 NSCLC, in the experiment with M19-MEL melanoma, with DLD-1 colon, with LXFL 529 NSCLC and in the experiment with SNB-78 CNS was above 100 µM throughout.
On to `CCN(CC)CCCNc1cc(OC)cc2nc3cc(Cl)ccc3nc12`, for which, in the experiment on PC-3 prostate, the GI50 was 1.97 µM and the TGI amounted to 7.43 µM.
